Assay results taken from patent US20230257468A1, “CIS-Binding Siglec Agonists and Related Compositions And Methods” (The Board of Trustees of the Leland Stanford Junior …, priority 2020, published 2023).

Experiments:
Type in all cases: cell-based, human
[1] = test system: neutrophils; test: Oxidative burst (ROS) in neutrophils
[2] = test system: PADI4 substrate H3; test: Western blot of H3 citrullination in neutrophils
[3] = test system: dHL-60 cells; test: NETosis in neutrophil-like dHL-60 cells
Procedure: (a-c) Primary neutrophils were cotreated with R848 (10 μM) and glycopolypeptide (500 nM) in IMDM supplemented 0.5% hiFBS containing the membrane impermeable DNA intercalators Cytotox Green or Red (250 nM). Images were acquired by fluorescence microscopy every 15 min for 12 h. The area of all green fluorescent objects >300 μm^2 was quantified and the total area was averaged across three images per well. Relative NETosis was determined by normalizing to the maximal NET area from R848 treatment alone (t=8 h). (a) Representative phase contrast and fluorescence images from t=8 h. Scale bars indicate 40 μm. (b) Quantitation of NETosis over time as area under the curve in (c). Error bars represent SD. (c) NET formation and degradation as a function of time. Error bands represent SEM. (d) Treatment of R848-stimulated neutrophils with various glycopolypeptides. Error bars represent SD. (e) pS9L is a mucin-like glycopolypeptide that bears high affinity and specific ligands for Siglec-9 and is functionalized with a membrane-tethering lipid tail. (f) HL-60 cells were transfected with siRNAs against SIGLEC9 (encoding Siglec-9), PTPN6 (encoding SHP-1), or a scrambled control and then grown for two days. Cells were then cotreated with R848 (10 μM) and vehicle or pS9L (500 nM). […] Statistics were determined by two-way ANOVA (b) or one-way ANOVA (c,d,f). * p<0.05; ** p<0.01; *** p<0.001; **** p<0.0001. […]

[4] = test system: primary neutrophils; test: Live-cell imaging NETosis assay, primary neutrophils; details: healthy neutrophils in vitro
Procedure: (a-c) Primary neutrophils were cotreated with R848 (10 μM) and glycopolypeptide (500 nM) in IMDM supplemented 0.5% hiFBS containing the membrane impermeable DNA intercalators Cytotox Green or Red (250 nM). Images were acquired by fluorescence microscopy every 15 min for 12 h. The area of all green fluorescent objects >300 μm^2 was quantified and the total area was averaged across three images per well. Relative NETosis was determined by normalizing to the maximal NET area from R848 treatment alone (t=8 h). (a) Representative phase contrast and fluorescence images from t=8 h. Scale bars indicate 40 μm. (b) Quantitation of NETosis over time as area under the curve in (c). Error bars represent SD. (c) NET formation and degradation as a function of time. Error bands represent SEM. (d) Treatment of R848-stimulated neutrophils with various glycopolypeptides. Error bars represent SD. […] Statistics were determined by two-way ANOVA (b) or one-way ANOVA (c,d,f). * p<0.05; ** p<0.01; *** p<0.001; **** p<0.0001.
TLR agonists were assayed using the live-cell imaging techniques in which freshly isolated neutrophils are cultured in low-serum media in the presence of a fluorogenic and membrane impermeable DNA-intercalating dye (Cytotox Green). Upon genomic DNA-externalization by NETosis, dye intercalates and fluorescence increases. […]

SMILES	inhibition of pS9L-induced oxidative burst [1]	citrullination of H3 [2]	induction of NETosis [3]	induction of NETosis [4]
O=S(=O)(O)c1ccc2cc(N=Nc3cc(S(=O)(=O)O)c4cccnc4c3O)ccc2c1 [NSC-87877]	the oxidative burst was inhibited			
CCCCCCCCCCCCCC(=O)O[C@@H]1[C@@H](C)[C@@]2(O)[C@@H](C=C(CO)C[C@]3(O)C(=O)C(C)=C[C@@H]23)[C@@H]2C(C)(C)[C@]12OC(C)=O [PMA, phorbol-12-myristate-13-acetate]		only yields moderate citrullination		
CCOCc1nc2c(N)nc3ccccc3c2n1CC(C)(C)O [R848]		rapidly induced citrullination at R2, R8, and R17	induced NETosis	sufficient to induce NETosis
